52 compounds from patent US8329739B2, “Phenylimidazole compounds” (Otsuka Pharmaceutical Factory, Inc., priority 2009, dated 2012) can be followed below.

Each structure is given as a SMILES string. Where a name gives a salt, the structure may show the parent alone.

One data set addresses T1, LPL (lipoprotein lipase) (Mus musculus, UniProt P11152).
T1 construct: endogenous in cells; host or cells: C2C12 cells, differentiated
T1 sequence (P11152 28-474): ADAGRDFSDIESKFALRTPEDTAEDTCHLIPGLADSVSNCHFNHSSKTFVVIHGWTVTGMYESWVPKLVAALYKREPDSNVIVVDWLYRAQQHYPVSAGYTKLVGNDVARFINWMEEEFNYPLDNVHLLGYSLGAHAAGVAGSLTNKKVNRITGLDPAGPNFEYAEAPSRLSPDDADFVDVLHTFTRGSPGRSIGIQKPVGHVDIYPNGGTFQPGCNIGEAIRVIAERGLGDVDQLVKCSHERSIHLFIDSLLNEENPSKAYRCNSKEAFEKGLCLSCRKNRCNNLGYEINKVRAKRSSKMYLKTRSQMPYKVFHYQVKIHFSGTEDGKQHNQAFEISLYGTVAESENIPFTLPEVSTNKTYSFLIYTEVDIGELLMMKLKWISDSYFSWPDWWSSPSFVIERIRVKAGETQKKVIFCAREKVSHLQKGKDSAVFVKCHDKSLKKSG
Put plainly: Confirmation test of LPL activation effect in mouse skeletal muscle cells (C2C12 cells). It counts as cell-based. To be noted: 8 hours exposure, vs control group. As to the method:
Human skeletal muscle cells (human skeletal muscle myoblasts) or mouse skeletal muscle cells (C2C12 cells) that were seeded onto plates, cultured, and differentiated were exposed to a 0.3% dimethyl sulfoxide-containing culture medium in which the compound of the present invention was dissolved (concentration: 10 μM or 30 μM). The medium was removed 8 hours after exposure, 10 mM of Tris-HCl buffer (150 mM NaCl, 10 μ/mL; containing heparin sodium) was added to the cells, and the cells were incubated at 37° C. in the presence of 5% CO2 for 10 minutes. LPL activity in the supernatant was measured using an LPL activity assay kit (made by Roar Biomedical Inc.). LPL activity was evaluated based on the increase in fluorescence intensity 10 to 70 minutes after mixing the supernatant with the LPL substrate. The mean value of the increase in fluorescence intensity of the cells exposed to a 0.3% dimethyl sulfoxide-containing culture medium […] was used as mean value of the control group. Note that the compounds of Examples 18, 19, 32, 45 and 57 were tested using human skeletal muscle cells, and other compounds were tested using mouse skeletal muscle cells. The rate of increase (%) was calculated from the measured values of LPL activity in the control group and the experimental group, according to the following formula. Rate of increase in LPL activity (%)=[(mean value of the experimental group)−(mean value of the control group)]/(mean value of the control group)×100

For the compound `COc1cccc(-c2nc(-c3ccc(OCc4ccc(Cl)cc4)cc3OC)c[nH]2)c1.Cl`, the melting point lay in the range of 256 to 258 °C. Compound `COc1cc(OCc2ccc(Cl)cc2)ccc1-c1c[nH]c(-c2cccc(C)c2)n1.Cl` came in with a melting point of 217 to 220 °C.

For `COc1cc(OCc2ccc(C#N)cc2)ccc1-c1c[nH]c(-c2cccc(C)c2)n1.Cl`, the melting point is 243 to 246 °C. Take `COc1cc(OCc2ccc(C#N)cc2)ccc1-c1c[nH]c(-c2cc(Cl)cc(Cl)c2)n1.Cl`: the melting point was more than 250 °C.

For `COc1cc(OCc2ccccc2)ccc1-c1c[nH]c(-c2cccc(C)c2)n1.Cl`, the melting point was in the range of 194 to 196 °C.

Turning to `COc1cc(OCc2ccc(Cl)cc2F)ccc1-c1c[nH]c(-c2ccc(F)c(F)c2)n1.Cl`, the melting point lay within 251 to 255 °C. As for `COc1cc(OCc2ccc(Cl)cc2F)ccc1-c1c[nH]c(-c2ccc(Cl)c(Cl)c2)n1.Cl`, the melting point lay within 254 to 258 °C. With `COc1cc(OCc2ccccc2)ccc1-c1c[nH]c(-c2cccs2)n1.Cl`, the melting point was in the range of 139 to 142 °C. Same read-out and setting: in the case of `CCOC(=O)c1ccc(-c2nc(-c3ccc(OCc4ccccc4)c(OC)c3)c[nH]2)cc1.Cl` it was 211 to 213 °C. Turning to `COc1cc(-c2c[nH]c(-c3ccc(C(=O)O)cc3)n2)ccc1OCc1ccccc1.Cl`, the melting point was 241 to 243 °C. As for `COc1cc(-c2c[nH]c(-c3cccc(F)c3)n2)ccc1OCc1ccc(Br)cc1F.Cl`, the melting point was 244 to 247 °C. Still for that read-out and setting: under `COc1cc(OCc2ccc(Br)cc2F)ccc1-c1c[nH]c(-c2cccc(F)c2)n1.Cl` stands 240 to 245 °C. Regarding `COc1cc(OCc2ccc(Cl)cc2)ccc1-c1c[nH]c(-c2ccc(C)cc2)n1.Cl`, the melting point was in the range of 241 to 244 °C. Consider `COc1cc(-c2c[nH]c(-c3ccc(C(F)(F)F)cc3)n2)ccc1OCc1ccc(Br)cc1F` (as salt: hydrochloride) [Example 1, 4-[4-(4-bromo-2-fluorobenzyloxy)-3-methoxyphenyl]-2-[4-(trifluoromethyl)phenyl]-1H-imidazole hydrochloride], for which the melting point lay in the range of 174 to 175 °C. Consider `COc1cc(-c2c[nH]c(-c3ccc(C(F)(F)F)cc3)n2)ccc1OCc1ccc(Br)cc1F` [Example 1, 4-[4-(4-bromo-2-fluorobenzyloxy)-3-methoxyphenyl]-2-[4-(trifluoromethyl)phenyl]-1H-imidazole hydrochloride], for which the “Rate of increase in LPL activity” value at LPL (lipoprotein lipase) (amount of addition 10 μM) was determined as 64%; on LPL (lipoprotein lipase) (amount of addition 30 μM), 360%. The compound `COc1cc(-c2c[nH]c(-c3ccccc3)n2)ccc1OCc1ccc(Cl)cc1` [Example 2] returned a melting point of 87 to 89 °C. The “Rate of increase in LPL activity” value on LPL (lipoprotein lipase) (amount of addition 10 μM) was determined as 13%. Also, the “Rate of increase in LPL activity” value at LPL (lipoprotein lipase) (amount of addition 30 μM) came to 38%.

On to `COc1cc(-c2c[nH]c(-c3ccccc3)n2)ccc1OCc1ccc(Br)cc1F.Cl` [Example 3], for which the melting point was in the range of 224 to 226 °C. At LPL (lipoprotein lipase) (amount of addition 10 μM), the “Rate of increase in LPL activity” value amounted to 43%. For the same compound, the “Rate of increase in LPL activity” value at LPL (lipoprotein lipase) (amount of addition 30 μM) amounted to 62%. In turn, `COc1cc(-c2c[nH]c(-c3ccc(Cl)cc3)n2)ccc1OCc1ccccc1` [Example 4] came in with a melting point of 228 to 229 °C. Also, the “Rate of increase in LPL activity” value on LPL (lipoprotein lipase) (amount of addition 10 μM) was found to be 31%. The “Rate of increase in LPL activity” value at LPL (lipoprotein lipase) (amount of addition 30 μM) was 45%. For `COc1cc(-c2c[nH]c(-c3ccc(C)cc3)n2)ccc1OCc1ccccc1.Cl` [Example 5], the melting point fell in the range of 244 to 245 °C. For the same compound, the “Rate of increase in LPL activity” value at LPL (lipoprotein lipase) (amount of addition 10 μM) is 14%. Also, the “Rate of increase in LPL activity” value at LPL (lipoprotein lipase) (amount of addition 30 μM) turned out to be 42%. `COc1cc(-c2cn(C)c(-c3ccc(C(F)(F)F)cc3)n2)ccc1OCc1ccccc1` [Example 6] showed a melting point of 138 to 139 °C. As to `COc1cc(OCc2ccccc2)ccc1-c1c[nH]c(-c2ccccc2)n1.Cl` [Example 7], the melting point is 229 to 230 °C. In addition, the “Rate of increase in LPL activity” value on LPL (lipoprotein lipase) (amount of addition 10 μM) is 69%. The “Rate of increase in LPL activity” value at LPL (lipoprotein lipase) (amount of addition 30 μM) is recorded as 197%. Consider `COc1cc(-c2cn(C)c(-c3ccccc3)n2)ccc1OCc1ccccc1` [Example 8], for which the melting point was in the range of 146 to 147 °C. Turning to `COc1cc(OCc2ccc(C#N)cc2)ccc1-c1c[nH]c(-c2ccccc2)n1` [Example 12], the melting point lay within 99 to 103 °C.

As for `COc1cc(-c2cnc(-c3cccs3)[nH]2)ccc1OCc1ccccc1` [Example 14], the melting point fell in the range of 178 to 181 °C. With `COc1cc(OCc2ccc(C#N)cc2)ccc1-c1c[nH]c(-c2cccs2)n1` [Example 21], the melting point lay within 193 to 196 °C.

Compound `COc1cc(OCc2ccc(Cl)cc2)ccc1-c1c[nH]c(-c2cccs2)n1` [Example 22] displayed a melting point of 107 to 109 °C.

`COc1cc(-c2c[nH]c(-c3ccsc3)n2)ccc1OCc1ccccc1` [Example 25] yielded a melting point of 132 to 135 °C. With `COc1ccc(-c2nc(-c3ccc(OCc4ccccc4)c(OC)c3)c[nH]2)cc1` [Example 27], the melting point is 146 to 148 °C. For the compound `COc1cc(-c2c[nH]c(C(C)C)n2)ccc1OCc1ccccc1` [Example 29], the melting point fell in the range of 148 to 152 °C.

In the case of `COc1cc(-c2nc(-c3ccc(C(F)(F)F)cc3)[nH]c2C)ccc1OCc1ccccc1` [Example 34], the melting point lay in the range of 160 to 165 °C.

On to `COc1cc(-c2c[nH]c(C(C)C)n2)ccc1OCc1ccc(Cl)cc1` [Example 35], for which the melting point lay in the range of 126 to 128 °C. On the same count and under the same terms, under `COc1cc(-c2c[nH]c(C)n2)ccc1OCc1ccccc1` [Example 40] stands 159 to 163 °C; under `COc1cc(-c2c[nH]c(-c3ccc(C(F)(F)F)cc3)n2)ccc1O` [Example 41], 197 to 198 °C; under `COc1cc(-c2c[nH]c(-c3ccc(F)cc3)n2)ccc1O` [Example 44], 116 to 123 °C. `COc1cc(OCc2ccc(C#N)cc2)ccc1-c1c[nH]c(-c2cccc(F)c2)n1` [Example 60] showed a melting point of 257 to 260 °C. On the same count and under the same terms, in the case of `COc1cc(-c2c[nH]c(-c3ccccc3)n2)ccc1OCc1ccc(C#N)cc1` [Example 63] it was 193 to 196 °C; in that of `COc1cc(-c2c[nH]c(-c3cccs3)n2)ccc1OCc1ccc(C#N)cc1` [Example 64], 192 to 193 °C; in that of `COc1cc(OCc2ccc(Br)cc2F)ccc1-c1c[nH]c(-c2ccc(F)c(F)c2)n1` [Example 89], 263 to 265 °C. For the compound `COc1cc(OCc2ccc(Br)cc2F)ccc1-c1c[nH]c(-c2cccc(C)c2)n1` [Example 95], the melting point was 120 to 123 °C. `COc1cc(O)ccc1-c1c[nH]c(-c2ccccc2)n1` [Example 105]: the melting point was 232 to 235 °C. The compound `COc1cc(O)ccc1-c1c[nH]c(-c2ccc(C(F)(F)F)cc2)n1` [Example 106] displayed a melting point of more than 250 °C. `COc1cc(O)ccc1-c1c[nH]c(-c2ccc(F)cc2)n1` [Example 107]: the melting point is more than 250 °C. `COc1cc(O)ccc1-c1c[nH]c(-c2ccc(C)cc2)n1` [Example 108]: the melting point lay within 260 to 262 °C.

`COc1cc(OCc2ccccc2)ccc1-c1c[nH]c(-c2cccc(Cl)c2)n1` [Example 122] gave a melting point of 142 to 145 °C. The same measure, in the same setting: under `COc1cc(OCc2ccccc2)ccc1-c1c[nH]c(-c2cc(Cl)cc(Cl)c2)n1` [Example 125] stands 161 to 163 °C; under `COc1cc(OCc2ccccc2)ccc1-c1c[nH]c(-c2ccc(C(C)(C)C)cc2)n1` [Example 129], 227 to 229 °C. In turn, `COc1cc(OCc2ccc(Cl)cc2F)ccc1-c1c[nH]c(-c2ccc(Cl)cc2)n1` [Example 131] displayed a melting point of 191 to 194 °C. Still for that read-out and setting: under `COc1cc(OCc2ccc(Cl)cc2F)ccc1-c1c[nH]c(-c2cccc(C)c2)n1` [Example 135] stands 115 to 120 °C; under `COc1cc(OCc2ccc(Cl)cc2F)ccc1-c1c[nH]c(-c2ccc(C)cc2)n1` [Example 136], 152 to 155 °C. Regarding `COc1cc(-c2c[nH]c(-c3ccc(F)cc3)n2)ccc1OCc1ccc(C(F)(F)F)cc1` [Example 164], the “Rate of increase in LPL activity” value was determined as 4% on LPL (lipoprotein lipase) (amount of addition 10 μM) and 228% on LPL (lipoprotein lipase) (amount of addition 30 μM).

`COc1cc(-c2c[nH]c(-c3ccc(C(F)(F)F)cc3)n2)ccc1OCc1ccc(C(F)(F)F)cc1` [Example 165]: the “Rate of increase in LPL activity” value at LPL (lipoprotein lipase) (amount of addition 10 μM) is recorded as 38%; on LPL (lipoprotein lipase) (amount of addition 30 μM), 476%. As for `COc1cc(OCc2ccc(C(F)(F)F)cc2)ccc1-c1c[nH]c(-c2ccc(C(F)(F)F)cc2)n1` [Example 167], the “Rate of increase in LPL activity” value at LPL (lipoprotein lipase) (amount of addition 10 μM) was determined as 37%; on LPL (lipoprotein lipase) (amount of addition 30 μM) it was 104%.

In general, melting point refers to the temperature, or range, at which the solid turns liquid.
